Data set [1] concerns back skin of hairless mouse (HR-1) applied with oleic acid. The data set is described as follows: Test for Parakeratosis-Inhibiting Effect (oleic acid applied on the back of hairless mouse; rough skin visual score and parakeratosis value). The settings on record: for Parakeratosis value (Average for 5 mice): 3.0 mass % sample after 10 mass % oleic acid; for Parakeratosis value (Average for 5 mice) / Parakeratosis value (Average for 4 mice) / Visual observation value (Average for 4 mice): 3 days; for Parakeratosis value (Average for 5 mice) / Parakeratosis value (Average for 4 mice): control = 2.0; for effect of inhibiting parakeratosis (Tables 1 and 2) / effects of inhibiting rough skin such as desquamation and erythema caused by unsaturated fatty acids (text on Table 1): 3 mass %, hairless mouse, oleic acid; for Parakeratosis value (Average for 4 mice) / Visual observation value (Average for 4 mice): 3 mass % sample after 10 mass % oleic acid; for Parakeratosis value (Average for 4 mice): tape-stripped stratum corneum, hematoxylin, higher = more parakeratosis; for Visual observation value (Average for 4 mice): back of hairless mouse, rough skin (desquamation and erythema) score, control = 2.0, no roughness = 0.0. Format: in vivo. Here is the method: 3 mass % test compound aqueous solution (containing 30 mass % ethanol) was primarily prepared as a sample solution. The pH was adjusted with hydrochloric acid or sodium hydroxide so as to be 7.0 to 7.5. When the solubility of test compound was low, the sample solution was prepared depending on the solubility.
100 μl of 10 mass % oleic acid solution (solvent: ethanol) was applied on the back of a hairless mouse (HR-1; Hoshino Laboratory Animals), and then 100 μl of the sample solution was applied thereon. […] In the evaluation, the condition of the skin on which the control (control aqueous solution) was applied set a score of 2.0 and the skin condition without roughness set a score of 0.0. Then, the skin condition was scored by visual observation in increments of 0.25 between them. At the same time, the stratum corneum at the back of the hairless mouse was peeled off with tape, the nuclei were stained by hematoxylin, and the degree of parakeratosis was observed and evaluated using a parakeratosis value within a range of 1.0 to 3.0 (in 0.25 increments). The higher the value is, the more the number of nucleated cell in the stratum corneum is, i.e., the more the parakeratosis is advanced.
The evaluation was conducted according to the plan which was approved in the in-house council on animal experiment, complying with Act on Welfare and Management of Animals and other related acts.

The test system of data set [2] is back skin of hairless mice (HR-1) applied with oleic acid. The data set is described as follows: Test for Ameliorating Effect to Rough Skin Induced by Applying Oleic Acid (TEWL). Format: in vivo. The note with it: for TEWL value: 3 mass % sample after 10 mass % oleic acid, 3 days, average of four mice, higher = worse rough skin, control = 12.0; for ΔTEWL value compared with the control aqueous solution (text on Table 3): 3 mass %, hairless mice, oleic acid. Here is the method:
The difference was compared with the control (control aqueous solution), and the effect was determined. […] The TEWL was measured using TEWA Meter TM210 (Courage+Khazaka Electronic GmBH).
100 μl of 10 mass % oleic acid solution (solvent: ethanol) was applied on the back of hairless mice (HR-1, four mice per group), and then 100 μl of the sample solution was applied thereon. The day after this procedure was continued for 3 days, the TEWL value of the back was measured, and the average value of the four mice was calculated. The higher the TEWL value is, the worse rough skin becomes.

In data set [3] the test system is cheek of sensory person (who has sensitive skin). The experiment in a line: Sensory Irritation Test. Format: in vivo, human. The note with it: for Evaluation (sensory irritation): 1 mL on cheek, ten minutes; for sensory irritation (Tables 4 and 5): 3 mass %, test subject with sensitive skin. Here is the method: Then, the irritating sensation was evaluated every 30 seconds for ten minutes immediately after the application, and a final evaluation was reported (n=2). The evaluation of the irritating sensation was based on the following rating criteria in four levels, and each average rating was calculated to be classified by the following criteria.
3: The test cannot be continued because of extremely strong irritation such as tingly, burning, prickly, and itching sensation. 2: The use is intolerable because of strong irritation such as tingly, burning, prickly, and itching sensation. 1: The use is tolerable though slight irritation such as tingly, burning, prickly, and itching sensation is felt. 0: The irritation is not particularly felt.
A: Average rating is less than 0.2 B: Average rating is 0.2 or greater to less than 1.0 C: Average rating is 1.0 or greater to less than 2.0 D: Average rating is 2.0 or greater

Data set [4] deals with IL-1α production in human normal keratinocytes. The experiment in a line: Inhibiting Effect of Increased Production of Inflammatory Cytokine Caused by Oleic Acid. The format is cell-based. The note with it: for IL-lα (pmol/ml, Mean ± S.D.): 8 hours. Here is the method: LTD., were incubated using KGM culture medium in a 75 cm^2 flask for 3 days. The cells were trypsinized according to a normal method, collected, and then inoculated into a 24 well plate (Corning Inc.) so as to be 40,000 cells per 0.5 ml of KGM culture medium. After incubation for another 3 days, oleic acid, or oleic acid and test compound, were added thereto. […] As a control, ethanol was added instead of oleic acid. After 8 hours, each culture was collected, and the amount of IL-1α was measured with a quantification kit (from R&D systems).

Setting [5] is: 3 mass % sample aqueous solution, n=2 (Table 4).
[6] abbreviates: 3.0 mass % sample aqueous solution, n=2 (Table 5).

With `NC(=O)NCCC[C@H](N)C(=O)O` [Citrulline, reference compound], in data set [1], the “Parakeratosis value (Average for 5 mice)” value is given as 2.0; the “effect of inhibiting parakeratosis (Tables 1 and 2)” value (from here on “effect of inhibiting parakeratosis”) is listed as “did not show such effects”.
For the molecule `CN[C@@H](CCC(=O)O)C(=O)O` [N-methyl-L-glutamic acid], in data set [2], the TEWL value came out at 6.4 and the “ΔTEWL value compared with the control aqueous solution (text on Table 3)” value was “significantly lowered the ΔTEWL value”. For the same molecule, in data set [1], the “Parakeratosis value (Average for 4 mice)” value worked out at 0.8; the “Visual observation value (Average for 4 mice)” value (“Visual observation value” for short) is given as 0.8; the “effects of inhibiting rough skin such as desquamation and erythema caused by unsaturated fatty acids (text on Table 1)” value (“effects of inhibiting rough skin such” for short) is reported as “showed the effects of inhibiting rough skin”. In addition, the “Evaluation (sensory irritation)” value in data set [3] (setting [5]) is “A (Average rating is less than 0.2)”. The “sensory irritation (Tables 4 and 5)” value in data set [3] is reported as “had no problem in sensory irritation”.
Consider `NCCCC(=O)O` [γ-aminobutyric acid, reference compound], for which the “Evaluation (sensory irritation)” value in data set [3] (setting [5]) and in data set [3] (setting [6]) was “C (Average rating is 1.0 or greater to less than 2.0)” in each case. The “sensory irritation (Tables 4 and 5)” value in data set [3] is “resulted in giving sensory irritation”.
As for `N=C(N)N[C@@H](CCC(=O)O)C(=O)O` [N-amidino-L-glutamic acid], in data set [1], the “Parakeratosis value (Average for 5 mice)” value was determined as 1.1; the “effect of inhibiting parakeratosis” value was “lowered the parakeratosis value”. Further, the “Evaluation (sensory irritation)” value in data set [3] (setting [6]) was “A (Average rating is less than 0.2)”. The “sensory irritation (Tables 4 and 5)” value in data set [3] is recorded as “had no problem in sensory irritation”.
On to `NC(=O)N[C@@H](CCC(=O)O)C(=O)O` [N-carbamoyl-L-glutamic acid], for which, in data set [2], the TEWL value was found to be 6.4 and the “ΔTEWL value compared with the control aqueous solution (text on Table 3)” value is on record as “significantly lowered the ΔTEWL value”. In addition, in data set [1], the “Parakeratosis value (Average for 4 mice)” value amounted to 0.7; the “Visual observation value” value amounted to 0.7; the “effects of inhibiting rough skin such” value is recorded as “showed the effects of inhibiting rough skin”. Besides, in data set [3] (setting [5]), the “Evaluation (sensory irritation)” value is “A (Average rating is less than 0.2)”. In data set [3], the “sensory irritation (Tables 4 and 5)” value was “had no problem in sensory irritation”.
Turning to `CCCCCCCC/C=C\CCCCCCCC(=O)O` [oleic acid, reference compound], the “IL-lα (pmol/ml, Mean ± S.D.)” value in data set [4] (10 μM oleic acid alone, solvent (ethanol) 4.7 ± 1.5) was determined as 239.8 ± 1.3 pmol/mL.
`Cl.N=C(N)N[C@@H](CCC(=O)O)C(=O)O` [N-amidino-L-glutamic acid hydrochloride]: in data set [1], the “Parakeratosis value (Average for 5 mice)” value is 1.1; the “effect of inhibiting parakeratosis” value is recorded as “lowered the parakeratosis value”. In addition, in data set [3] (setting [6]), the “Evaluation (sensory irritation)” value is “A (Average rating is less than 0.2)”. The “sensory irritation (Tables 4 and 5)” value in data set [3] is recorded as “had no problem in sensory irritation”.
Take `CC(=O)N[C@@H](CCC(=O)O)C(=O)O` [N-acetyl-L-glutamic acid, reference compound]: in data set [2], the TEWL value came out at 10.1 and the “ΔTEWL value compared with the control aqueous solution (text on Table 3)” value is on record as “inferior to that of the compounds of the present invention”. In data set [1], the “Parakeratosis value (Average for 4 mice)” value turned out to be 1.2; the “Visual observation value” value is recorded as 1.2; the “effect of inhibiting parakeratosis” value is listed as “inferior to those of the compounds of the present invention”.
Take `N=C(N)N[C@H](CCC(=O)O)C(=O)O` [N-amidino-D-glutamic acid]: in data set [1], the “Parakeratosis value (Average for 5 mice)” value is on record as 1.2; the “effect of inhibiting parakeratosis” value is given as “lowered the parakeratosis value”. Besides, the “Evaluation (sensory irritation)” value in data set [3] (setting [6]) was “A (Average rating is less than 0.2)”. The “sensory irritation (Tables 4 and 5)” value in data set [3] is “had no problem in sensory irritation”.
For `N=C(N)NC(CCC(=O)O)C(=O)O` (racemic) [N-amidino-DL-glutamic acid], in that order: 1.2, “lowered the parakeratosis value”, “A (Average rating is less than 0.2)” and “had no problem in sensory irritation”.
On to `CNC(CCC(=O)O)C(=O)O` (racemic) [N-methyl-DL-glutamic acid], for which, in data set [2], the TEWL value is 7.9 and the “ΔTEWL value compared with the control aqueous solution (text on Table 3)” value is on record as “significantly lowered the ΔTEWL value”. In data set [1], the “Parakeratosis value (Average for 4 mice)” value amounted to 0.9; the “Visual observation value” value was determined as 0.9; the “effects of inhibiting rough skin such” value is on record as “showed the effects of inhibiting rough skin”. For the same molecule, the “Evaluation (sensory irritation)” value in data set [3] (setting [5]) is given as “A (Average rating is less than 0.2)”. Besides, the “sensory irritation (Tables 4 and 5)” value in data set [3] is “had no problem in sensory irritation”.
Regarding `CCNC(=O)CC[C@H](NC(C)=O)C(=O)NCC` [N-acetyl-N′,N″-diethyl-L-glutamic acid-1,5-diamide], the “IL-lα (pmol/ml, Mean ± S.D.)” value in data set [4] (10 μM oleic acid + 500 μM test compound, solvent 4.7 ± 1.5, p < 0.01 vs. oleic acid) was found to be 225.5 ± 3.2 pmol/mL. Moreover, the “inhibition of the increased production of IL-1α caused by oleic acid (Table 6)” value in data set [4] (10 μM oleic acid, 500 μM (0.012%) compound) was “significantly inhibits the increased production of IL-1α”.
With `N=C(N)N[C@@H](CCC(=O)[O-])C(=O)[O-].[Na+].[Na+]` [Sodium N-amidino-L-glutamate], in data set [1], the “Parakeratosis value (Average for 5 mice)” value was found to be 1.1; the “effect of inhibiting parakeratosis” value is “lowered the parakeratosis value”. Moreover, the “Evaluation (sensory irritation)” value in data set [3] (setting [6]) was “A (Average rating is less than 0.2)”. The “sensory irritation (Tables 4 and 5)” value in data set [3] is reported as “had no problem in sensory irritation”.
As to `CC(=O)N[C@@H](CCC(N)=O)C(=O)O` [N-acetyl-L-glutamine, reference compound], in data set [2], the TEWL value amounted to 13.2 and the “ΔTEWL value compared with the control aqueous solution (text on Table 3)” value is “did not show such effects”. In data set [1], the “Parakeratosis value (Average for 5 mice)” value is listed as 1.9; the “Parakeratosis value (Average for 4 mice)” value is on record as 1.9; the “Visual observation value” value stood at 1.9; the “effect of inhibiting parakeratosis” value was “did not show such effects”. For the same molecule, in data set [1], the “effects of inhibiting rough skin such” value is “did not show such effects”.
Turning to `O=C(O)CC[C@H](NC(=O)OCc1ccccc1)C(=O)O` [N-benzyloxycarbonyl-L-glutamic acid], in data set [2], the TEWL value came out at 6.8 and the “ΔTEWL value compared with the control aqueous solution (text on Table 3)” value is “significantly lowered the ΔTEWL value”. Also, in data set [1], the “Parakeratosis value (Average for 4 mice)” value stood at 0.9; the “Visual observation value” value was determined as 0.9; the “effects of inhibiting rough skin such” value was “showed the effects of inhibiting rough skin”. The “Evaluation (sensory irritation)” value in data set [3] (setting [5]) is listed as “A (Average rating is less than 0.2)”. The “sensory irritation (Tables 4 and 5)” value in data set [3] was “had no problem in sensory irritation”.
